Consider 26 compounds from US9409879B2, “Total synthesis of redox-active 1.4-naphthoquinones and their metabolites and their therapeutic use as antimalarial and schistomicidal agents” (CENTRE NATIONAL DE LA RECHERCHE SCIENTIFIQUE, priority 2011, dated 2016).

In one data set the test system is hematin polymerization. Nature of the data set: Inhibition of the hematin polymerisation (β-hematin formation), UV-Vis absorbance at 405 nm. The class given is biochemical. The following applies: for Maximum inhibition (%) / IC50 drug (equiv.)/hematin (equiv.) ratio: inhibition of β-hematin formation; for IC50 drug (equiv.)/hematin (equiv.) ratio: absorbance at 405 nm. The method, then: The antischistosomial effect is measured by the evaluation of the ability of the compounds to inhibit hematin polymerization according to the biochemical assay previously developed by Ncokazi. K. K. Egan. T. J. Anal. Biochem. 2005, 338, 306-319 adapted to the compounds of the present invention. The assays were monitored by UV-Vis absorption spectrophotometry and IC50 values for inhibition of β-hematin formation were determined from the absorbance at 405 nm versus the drug (equiv.)/hematin (equiv.) ratio.

Another data set relates to P. falciparum strain Dd2. Put plainly: 3H-hypoxanthine incorporation antiproliferation assay, P. falciparum Dd2. The following applies: multi-resistant P. falciparum strain Dd2. Type of data set: cell-based, Plasmodium falciparum. On the procedure:
Infected erythrocytes in ring stage (0.5% parasitemia, 2.5% hematocrit) in 96-well plates were exposed to the compounds for 48 h and then to radioactive hypoxanthine for 24 h. The amount of radioactivity in precipitable material served as an index of cell proliferation.

Data set [1] can be described thus: Complex formation with hematin (apparent association constants). The class given is binding. To be noted: pH 7.5; 1:1 charge-transfer complexes with hematin. The source says:
Both 3-benzylnaphtoquinone derivatives form 1:2 or 2:1 complexes with hematin displaying apparent association constants at pH 7.5 of about 10^11-10^13 M^−1. Also the benzoxanthone derivative LJ144K form 1:1 charge-transfer complexes with hematin displaying apparent association constants at pH 7.5 of about 10^5-10^6 M^−1.

Another data set relates to P. falciparum strain 3D7. Put plainly: Antimalarial assay, chloroquine-sensitive P. falciparum 3D7. To be noted: chloroquine-sensitive strain 3D7. Type of data set: cell-based, Plasmodium falciparum.

Each structure is given as a SMILES string. Where a name gives a salt, the structure may show the parent alone.

As for `COc1cc(CC2=C(C)C(=O)c3ccc(OC)cc3C2=O)cc(OC)c1` [Compound 12.4, 3-(3,5-dimethoxybenzyl)-6-methoxy-2-methylnaphthalene-1,4-dione], the melting point worked out at 149 °C. As for `CC1=C(Cc2ccncc2)C(=O)c2ccccc2C1=O` [LJ186], in the data set on hematin polymerization, the “inhibition of the β-hematin polymerization” value is “very potent inhibitors”, the “Maximum inhibition (%)” value worked out at 80% and the “IC50 drug (equiv.)/hematin (equiv.) ratio” value was 4.2 drug (equiv.)/hematin (equiv.) ratio. Moreover, the “antimalarial activity relative to chloroquine and P_TM29” value in the data set on P. falciparum strain Dd2 is given as “more active than chloroquine or as active as P_TM29”. Regarding `CC1=C(Cc2ccc(C(F)(F)F)cc2)C(=O)c2cc(C)c(C)cc2C1=O` [Compound 12.27, 2,6,7-trimethyl-3-(4-(trifluoromethyl)benzyl)naphthalene-1,4-dione], the melting point was in the range of 143 to 144 °C. The same measure, in the same setting: the result for `COc1cc2c(cc1OC)C(=O)C(Cc1ccc(Br)cc1)=C(C)C2=O` [Compound 12.12, 6,7-dimethoxy-2-methyl-3-(4-bromobenzyl)naphthalene-1,4-dione] reads > 200 °C (dec.). Take `CC1=C(Cc2ccc(Br)cc2)C(=O)c2ccc(F)cc2C1=O` [Compound 12.16, 2-(4-bromobenzyl)-6-fluoro-3-methylnaphthalene-1,4-dione]: the melting point was 107 °C. Same read-out and setting: the result for `COc1ccc2c(c1)C(=O)C(C)=C(Cc1ccc(C(F)(F)F)cc1)C2=O` [Compound 12.8] reads 137 to 139 °C; that for `COc1ccc2c(c1)C(=O)C(Cc1ccc(Br)cc1)=C(C)C2=O` [Compound 12.1, 3-(4-bromobenzyl)-6-methoxy-2-methylnaphthalene-1,4-dione], 135 to 137 °C.

Compound `COc1ccc2c(c1)C(=O)C(Cc1ccc(C(F)(F)F)cc1)=C(C)C2=O` [Compound 12.2] had a melting point of 86 to 87 °C. As for `CC1=C(Cc2ccc(Br)cc2)C(=O)c2c(C)cccc2C1=O` [Compound 12.20, 3-(4-bromobenzyl)-2,5-dimethylnaphthalene-1,4-dione], the melting point was 149 to 150 °C. Same read-out and setting: the result for `CC1=C(Cc2ccc(C(F)(F)F)cc2)C(=O)c2cccc(C)c2C1=O` [Compound 12.25, 2,8-dimethyl-3-(4-(trifluoromethyl)benzyl)naphthalene-1,4-dione] reads 98 to 99 °C; that for `COc1ccc2c(c1)C(=O)C(C)=C(Cc1ccc(Br)cc1)C2=O` [Compound 12.7, 3-(4-bromobenzyl)-7-methoxy-2-methylnaphthalene-1,4-dione], 149 to 151 °C; that for `CC1=C(Cc2ccc(C(F)(F)F)cc2)C(=O)c2cc(OS(=O)(=O)C(F)(F)F)ccc2C1=O` (as salt: methanesulfonate) [Compound 12.29, 6-methyl-5,8-dioxo-7-(4-(trifluoromethyl)benzyl)-5,8-dihydronaphthalen-2-yl trifluoromethanesulfonate], 127 °C.

On to `Cc1c(O)c2ccccc2c2oc3cc(C(F)(F)F)ccc3c(=O)c12` [LJ144K, 5-hydroxy-6-methyl-10-(trifluoromethyl)-7H-benzo[c]xanthen-7-one], for which the “apparent association constants with hematin” value in data set [1] is reported as 10^5-10^6 M^−1. Also, in the data set with hematin polymerization, the “Maximum inhibition (%)” value came out at 75% and the “IC50 drug (equiv.)/hematin (equiv.) ratio” value is reported as 2.5 drug (equiv.)/hematin (equiv.) ratio. In addition, in the data set on P. falciparum strain 3D7, the “IC50 values, antimalarial effects” value is “submicromolar range”.

`COc1cc(CC2=C(C)C(=O)c3cc(OC)c(OC)cc3C2=O)cc(OC)c1` [Compound 12.13, 2-(3,5-dimethoxybenzyl)-6,7-dimethoxy-3-methylnaphthalene-1,4-dione] gave a melting point of 168 to 169 °C. On to `CC1=C(Cc2ccc(Br)cc2)C(=O)c2cccc(C)c2C1=O` [Compound 12.26, 2,8-dimethyl-3-(4-bromobenzyl)naphthalene-1,4-dione], for which the melting point is 116 to 118 °C. Same read-out and setting: then `CC1=C(Cc2ccc(Br)cc2)C(=O)c2ccc(C)cc2C1=O` [Compound 12.24, 2,7-dimethyl-3-(4-bromobenzyl)naphthalene-1,4-dione], with 122 to 123 °C; and `CC1=C(Cc2ccc(C(F)(F)F)cc2)C(=O)c2c(C)cccc2C1=O` [Compound 12.19, 2,5-dimethyl-3-(4-(trifluoromethyl)benzyl)naphthalene-1,4-dione], with 87 to 88 °C.

Compound `CC1=C(Cc2ccc(Br)cc2)C(=O)c2cc(F)ccc2C1=O` [Compound 12.5, 3-(4-bromobenzyl)-6-fluoro-2-methylnaphthalene-1,4-dione] yielded a melting point of 127 to 129 °C. Still for that read-out and setting: then `COc1ccc(OC)c(CC2=C(C)C(=O)c3cc(OC)c(OC)cc3C2=O)c1` [Compound 12.14, 2-14(2,5-dimethoxybenzyl)-6,7-dimethoxy-3-methylnaphthalene-1,4-dione], with 166 to 167 °C; and `CC1=C(Cc2ccc(F)c(Cl)c2)C(=O)c2ccc(F)cc2C1=O` [Compound 12.17, 2-(3-chloro-4-fluorobenzyl)-6-fluoro-3-methylnaphthalene-1,4-dione], with 117 to 118 °C; and `COc1cc(CC2=C(C)C(=O)c3cc(OC)ccc3C2=O)cc(OC)c1` [Compound 12.9, 3-(3,5-dimethoxybenzyl)-7-methoxy-2-methylnaphthalene-1,4-dione], with 151 to 153 °C. For `COc1cc2c(cc1OC)C(=O)C(Cc1ccc(C(F)(F)F)cc1)=C(C)C2=O` [Compound 12.11, 6,7-dimethoxy-2-methyl-3-(4-(trifluoromethyl)benzyl)naphthalene-1,4-dione], the melting point is > 200 °C (dec.). `CC1=C(Cc2ccc(C(F)(F)F)cc2)C(=O)c2ccc(OS(=O)(=O)C(F)(F)F)cc2C1=O` (as salt: methanesulfonate) [Compound 12.30, 7-methyl-5,8-dioxo-6-(4-(trifluoromethyl)benzyl)-5,8-dihydronaphthalen-2-yl trifluoromethanesulfonate] had a melting point of 87 to 88 °C. Still for that read-out and setting: the result for `CC1=C(Cc2ccc(C(F)(F)F)cc2)C(=O)c2ccc(C)cc2C1=O` [Compound 12.23, 2,7-dimethyl-3-(4-(trifluoromethyl)benzyl)naphthalene-1,4-dione] reads 102 °C; that for `CC1=C(Cc2ccc(Br)cc2)C(=O)c2cc(C)c(C)cc2C1=O` [Compound 12.28, 2,6,7-trimethyl-3-(4-bromobenzyl)naphthalene-1,4-dione], 129 to 130 °C; that for `CC1=C(Cc2ccc(F)c(C(F)(F)F)c2)C(=O)c2ccc(F)cc2C1=O` [Compound 12.18, 6-fluoro-2-(4-fluoro-3-(trifluoromethyl)benzyl)-3-methylnaphthalene-1,4-dione], 106 to 107 °C.
